Among the data in patent US8629143B2, “Potassium channel modulators” (AbbVie Inc., priority 2009, dated 2014) are Emax, EC50 and Max. % values, retold here.

Usually EC50 stands for the concentration that produces a half-maximal response. High values mean a less potent agent, low ones a more potent agent.

The assay deals with T1, KCNQ 2/3 channels (HEK293 cells stably expressing human KCNQ2 and KCNQ3 subunits) (Homo sapiens, UniProt O43525+O43526).
T1 construct: expressed in transfected cells; host or cells: HEK293
As to the kind of experiment: KCNQ2/3 channel activation, thallium flux FLIPR assay with BTC-AM dye. The class given is cell-based. As to conditions: for Emax: HEK293, read-out: Max. %; for EC50: HEK293 cells expressing human KCNQ2 and KCNQ3, thallium flux, FLIPR. Summed up: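 HEK293 cells stably expressing human KCNQ2/KCNQ3 were loaded with BTC-AM (3 μg/mL, 2 h, RT) and preincubated with compound for 4 min in pH 7.3 gluconate buffer containing 0.1 mM ouabain. Flux was triggered by 6 mM TlNO3/10 mM K2SO4 and read for 3 min; EC50 came from summed responses over basal, with maximum relative to 10 μM retigabine (100%).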

The mark [1] stands for this setting: maximum response relative to the response produced by 10 μM retigabine (set at 100%).

Structures are written as SMILES.

With `O=C(CC12CC3CC(CC(C3)C1)C2)Nn1nc(C2CCCCC2)c2ccccc2c1=O` [Example 75, 2-(adamantan-1-yl)-N-(4-cyclohexyl-1-oxophthalazin-2(1H)-yl)acetamide], the 50% effective concentration (EC50) was < 0.1 µM. The Emax under setting [1] came to 243%.

`O=C(CC12CC3CC(CC(F)(C3)C1)C2)Nn1nc(-c2ccccc2)c2ccsc2c1=O` [Example 179, 2-(3-fluoroadamantan-1-yl)-N-(7-oxo-4-phenylthieno[2,3-d]pyridazin-6(7H)-yl)acetamide] displayed a concentration giving a half-maximal response (EC50) of 0.5 to 1 µM. For the same molecule, the Emax under setting [1] was 169%.

With `O=C(CC1CC2CCC1C2)Nn1nc(C2CCCCC2)c2ccccc2c1=O` (racemic) [Example 74, (±)-2-(exo-bicyclo[2.2.1]heptan-2-yl)-N-(4-cyclohexyl-1-oxophthalazin-2(1H)-yl)acetamide], the half-maximal effective concentration (EC50) is < 0.1 µM. In addition, the Emax under setting [1] turned out to be 165%.

`CC(C)c1ccc(-c2nn(NC(=O)Cc3cc(F)cc(F)c3)c(=O)c3ccccc23)cc1` [Example 171, 2-(3,5-difluorophenyl)-N-[4-(4-isopropylphenyl)-1-oxophthalazin-2(1H)-yl]acetamide] yielded an EC50 of 0.5 to 1 µM. Under setting [1], the Emax stood at 134%.

In the case of `O=C(Nn1nc(C(F)(F)F)c2ccccc2c1=O)C(F)(F)c1ccccc1` [Example 44, 2,2-difluoro-N-[1-oxo-4-(trifluoromethyl)phthalazin-2(1H)-yl]-2-phenylacetamide], the concentration for a half-maximal effect (EC50) is > 10 µM. For the same molecule, the Emax under setting [1] came out at 35%.

As for `O=C(Cc1cc(F)cc(F)c1)Nn1nc(Cc2ccccc2)c2ccccc2c1=O` [Example 143, N-(4-benzyl-1-oxophthalazin-2(1H)-yl)-2-(3,5-difluorophenyl)acetamide], the EC50 was < 0.1 µM. Further, the Emax under setting [1] turned out to be 128%.

`O=C(Cc1ccsc1)Nn1nc(C(F)(F)F)c2ccccc2c1=O` [Example 53, N-[1-oxo-4-(trifluoromethyl)phthalazin-2(1H)-yl]-2-(3-thienyl)acetamide] had an EC50 of 1 to 10 µM. Besides, the Emax under setting [1] worked out at 61%.

On to `O=C(Cc1cccc(Cl)c1)Nn1nc(-c2ccc(Cl)cc2)c2ccccc2c1=O` [Example 103, 2-(3-chlorophenyl)-N-[4-(4-chlorophenyl)-1-oxophthalazin-2(1H)-yl]acetamide], for which the half-maximal effective concentration (EC50) is 0.1 to 0.5 µM. The Emax under setting [1] turned out to be 140%.

On to `O=C(CC12CC3CC(CC(C3)C1)C2)Nn1nc(-c2ccccc2)c2c(c1=O)CCCC2` [Example 185, 2-(adamantan-1-yl)-N-(1-oxo-4-phenyl-5,6,7,8-tetrahydrophthalazin-2(1H)-yl)acetamide], for which the concentration for a half-maximal effect (EC50) is < 0.1 µM. In addition, the Emax under setting [1] worked out at 144%.

In the case of `O=C(Cc1ccc(Cl)cc1)Nn1nc(-c2ccccc2)c2c(c1=O)CCC2` [Example 190, 2-(4-chlorophenyl)-N-(1-oxo-4-phenyl-1,5,6,7-tetrahydro-2H-cyclopenta[d]pyridazin-2-yl)acetamide], the EC50 fell in the range of 1 to 10 µM. The Emax under setting [1] was 124%.

As to `COc1ccc(-c2nn(NC(=O)CC3CC4CCC3C4)c(=O)c3ccccc23)cc1` (racemic) [Example 151, (±)-2-(exo-bicyclo[2.2.1]hept-2-yl)-N-[4-(4-methoxyphenyl)-1-oxophthalazin-2(1H)-yl]acetamide], the EC50 is < 0.1 µM. Besides, the Emax under setting [1] came to 141%.

Take `Cc1cccc(CC(=O)Nn2nc(-c3ccc(Cl)cc3)c3ccccc3c2=O)c1` [Example 108, N-[4-(4-chlorophenyl)-1-oxophthalazin-2(1H)-yl]-2-(3-methylphenyl)acetamide]: the 50% effective concentration (EC50) lay within 0.1 to 0.5 µM. The Emax under setting [1] is 96%.

With `CC(C)(CC(=O)Nn1nc(-c2ccc(C(F)(F)F)cc2)c2ccccc2c1=O)c1ccccc1` [Example 148, 3-methyl-N-{1-oxo-4-[4-(trifluoromethyl)phenyl]phthalazin-2(1H)-yl}-3-phenylbutanamide], the EC50 fell in the range of 0.1 to 0.5 µM. Moreover, under setting [1], the Emax was 114%.

Consider `O=C(CC1CC2CCC1C2)Nn1nc(CCc2ccccc2)c2ccccc2c1=O` (racemic) [Example 167, (±)-2-(exo-bicyclo[2.2.1]hept-2-yl)-N-[1-oxo-4-(2-phenylethyl)phthalazin-2(1H)-yl]acetamide], for which the EC50 was < 0.1 µM. The Emax under setting [1] was 144%.

`O=C(CC1(c2ccc(Cl)cc2)CCC1)Nn1nc(C(F)(F)F)c2ccccc2c1=O` [Example 40, 2-[1-(4-chlorophenyl)cyclobutyl]-N-[1-oxo-4-(trifluoromethyl)phthalazin-2(1H)-yl]acetamide]: the EC50 is > 10 µM. Moreover, under setting [1], the Emax stood at 7%.

For `O=C(CC1CCCC1)Nn1nc(-c2ccc(Cl)cc2)c2ccccc2c1=O` [Example 109, N-[4-(4-chlorophenyl)-1-oxophthalazin-2(1H)-yl]-2-cyclopentylacetamide], the 50% effective concentration (EC50) is < 0.1 µM. The Emax under setting [1] worked out at 138%.

For the molecule `O=C(Cc1ccc(Cl)cc1)Nn1nc(C2CCCC2)c2ccccc2c1=O` [Example 72, 2-(4-chlorophenyl)-N-(4-cyclopentyl-1-oxophthalazin-2(1H)-yl)acetamide], the 50% effective concentration (EC50) is < 0.1 µM. Further, under setting [1], the Emax was determined as 130%.

For `O=C(C[C@@H]1C[C@@H]2C=C[C@H]1C2)Nn1nc(C2CCC2)c2ccccc2c1=O` [Example 67, 2-[(1S,2S,4S)-bicyclo[2.2.1]hept-5-en-2-yl]-N-(4-cyclobutyl-1-oxophthalazin-2(1H)-yl)acetamide], the EC50 was < 0.1 µM. Also, the Emax under setting [1] worked out at 166%.

Take `CC(C)c1ccc(-c2nn(NC(=O)CC34CC5CC(CC(C5)C3)C4)c(=O)c3ccccc23)cc1` [Example 169, 2-(adamantan-1-yl)-N-[4-(4-isopropylphenyl)-1-oxophthalazin-2(1H)-yl]acetamide]: the EC50 was 0.1 to 0.5 µM. Also, the Emax under setting [1] is 139%.

Take `O=C(C[C@@H]1C[C@@H]2CC[C@H]1C2)Nn1nc(C2CCC2)c2ccccc2c1=O` [Example 66, 2-[(1S,2S,4R)-bicyclo[2.2.1]hept-2-yl]-N-(4-cyclobutyl-1-oxophthalazin-2(1H)-yl)acetamide]: the EC50 is < 0.1 µM. In addition, under setting [1], the Emax worked out at 148%.

Molecule `CN(C)c1ccc(CC(=O)Nn2nc(-c3ccc(Cl)cc3)c3ccccc3c2=O)cc1` [Example 101, N-[4-(4-chlorophenyl)-1-oxophthalazin-2(1H)-yl]-2-[4-(dimethylamino)phenyl]acetamide] yielded an EC50 of 1 to 10 µM. Besides, the Emax under setting [1] was 57%.

`O=C(Cc1ccc(Cl)cc1)Nn1nc(C2CC2)c2ccccc2c1=O` [Example 22, 2-(4-chlorophenyl)-N-(4-cyclopropyl-1-oxophthalazin-2(1H)-yl)acetamide] gave a 50% effective concentration (EC50) of 1 to 10 µM. Further, the Emax under setting [1] worked out at 63%.

Take `O=C(CC1(C(F)(F)F)CCCC1)Nn1nc(Cc2ccccc2)c2ccccc2c1=O` [Example 139, N-(4-benzyl-1-oxophthalazin-2(1H)-yl)-2-[1-(trifluoromethyl)cyclopentyl]acetamide]: the EC50 is > 10 µM. For the same molecule, under setting [1], the Emax stood at 20%.

As to `O=C(CC(F)(F)F)Nn1nc(-c2ccc(Cl)cc2)c2ccccc2c1=O` [Example 124, N-[4-(4-chlorophenyl)-1-oxophthalazin-2(1H)-yl]-3,3,3-trifluoropropanamide], the EC50 is 1 to 10 µM. Besides, the Emax under setting [1] is 33%.

Regarding `CC1(C)[C@H]2CC[C@@H](CC(=O)Nn3nc(-c4ccccc4)c4ccsc4c3=O)[C@@H]1C2` [Example 30, 2-[(1S,2S,5S)-6,6-dimethylbicyclo[3.1.1]hept-2-yl]-N-(7-oxo-4-phenylthieno[2,3-d]pyridazin-6(7H)-yl)acetamide], the concentration giving a half-maximal response (EC50) is 1 to 10 µM. For the same molecule, the Emax under setting [1] was found to be 94%.

`COc1ccc(-c2nn(NC(=O)Cc3cc(F)cc(F)c3)c(=O)c3cc(Br)ccc23)cc1` [Example 177, N-[7-bromo-4-(4-methoxyphenyl)-1-oxophthalazin-2(1H)-yl]-2-(3,5-difluorophenyl)acetamide]: the EC50 was > 10 µM. Besides, the Emax under setting [1] came out at 48%.

The molecule `CC(C)(CC(=O)Nn1nc(-c2ccccc2)c2ccccc2c1=O)c1ccccc1` [Example 82, 3-methyl-N-(1-oxo-4-phenylphthalazin-2(1H)-yl)-3-phenylbutanamide] displayed a 50% effective concentration (EC50) of 0.1 to 0.5 µM. The Emax under setting [1] was 156%.

For `Cc1ccc(C)c(-c2nn(NC(=O)CC3CC4CCC3C4)c(=O)c3ccccc23)c1` (racemic) [Example 155, (±)-2-(exo-bicyclo[2.2.1]hept-2-yl)-N-[4-(2,5-dimethylphenyl)-1-oxophthalazin-2(1H)-yl]acetamide], the half-maximal effective concentration (EC50) is < 0.1 µM. The same molecule registered a Max. % under setting [1] of 165%.

`O=C(CC12CC3CC(CC(C3)C1)C2)Nn1nc(-c2ccc(Br)cc2)c2ccccc2c1=O` [Example 2, 2-(1-adamantyl)-N-[4-(4-bromophenyl)-1-oxophthalazin-2(1H)-yl]acetamide] displayed an EC50 of 0.1 to 0.5 µM. Further, the Emax under setting [1] was determined as 193%.

As to `COc1ccc(-c2nn(NC(=O)Cc3cc(F)cc(F)c3)c(=O)c3ccc(Br)cc23)cc1` [Example 176, N-[6-bromo-4-(4-methoxyphenyl)-1-oxophthalazin-2(1H)-yl]-2-(3,5-difluorophenyl)acetamide], the EC50 was in the range of 0.1 to 0.5 µM. Also, the Emax under setting [1] is 33%.

For the molecule `O=C(Cc1ccc(Cl)cc1)Nn1nc(-c2ccc(Cl)cc2)c2c(F)ccc(F)c2c1=O` [Example 182, 2-(4-chlorophenyl)-N-[4-(4-chlorophenyl)-5,8-difluoro-1-oxophthalazin-2(1H)-yl]acetamide], the concentration for a half-maximal effect (EC50) was 0.1 to 0.5 µM. Under setting [1], the Emax is 122%.

`O=C(Nn1nc(-c2ccc(Cl)cc2)c2ccccc2c1=O)C(F)c1ccccc1` (stereo not shown) [Example 90, N-[4-(4-chlorophenyl)-1-oxophthalazin-2(1H)-yl]-2-fluoro-2-phenylacetamide]: the EC50 was > 10 µM. Further, the Emax under setting [1] was 1%.
